Test: Plasma pharmacokinetics of BI 187004 after single oral doses (LC–MS/MS)
Settings: male, human, plasma, po; for concentration at 6 h: planned time 6 h; for concentration at 8 h: planned time 8 h; for concentration at 10 h: planned time 10 h; for concentration at 12 h: planned time 12 h; for concentration at 36 h: planned time 36 h; for concentration at 48 h: planned time 48 h; for concentration at 72 h: planned time 72 h; for concentration at 96 h: planned time 96 h; for concentration at 0.5 h: planned time 0.5 h; for concentration at 1 h: planned time 1 h; for concentration at 1.5 h: planned time 1.5 h; for concentration at 2 h: planned time 2 h; for concentration at 2.5 h: planned time 2.5 h; for concentration at 3 h: planned time 3 h; for concentration at 4 h: planned time 4 h; for concentration at 5 h: planned time 5 h
[1] = 240 mg, BI 187004 plasma concentrations, gMean, 240 mg single oral
[2] = 360 mg, BI 187004 plasma concentrations, 360 mg single oral, individual subjects
[3] = 360 mg, BI 187004 plasma concentrations, Max, 360 mg single oral
[4] = 360 mg, BI 187004 plasma concentrations, Mean, 360 mg single oral
[5] = 360 mg, BI 187004 plasma concentrations, Median, 360 mg single oral
[6] = 360 mg, BI 187004 plasma concentrations, Min, 360 mg single oral
[7] = 360 mg, BI 187004 plasma concentrations, gMean, 360 mg single oral

SMILES: N#Cc1ccc2c(c1)[C@H]1CCCN(C(=O)c3ccc4[nH]cnc4c3)[C@H]1C2 [BI 187004]
- concentration at 6 h [1]: 3.28 µM
- concentration at 8 h [1]: 2.65 µM
- concentration at 10 h [1]: 2.6 µM
- concentration at 12 h [1]: 1.99 µM
- concentration at 24 h (240 mg, BI 187004 plasma concentrations, gMean, 240 mg single oral, planned time 24 h): 2.13 µM
- concentration at 36 h [1]: 0.885 µM
- concentration at 48 h [1]: 0.465 µM
- concentration at 72 h [1]: 0.118 µM
- concentration at 96 h [1]: 0.0419 µM
- concentration at 24 h (240 mg, C24 gMean (%gCV), 240 mg single oral dose): 2.13 µM
- AUC(0-inf) (360 mg): 191 µM·h
- AUC(0-t) (360 mg): 135 µM·h
- Cmax (360 mg): 13.4 µM
- Tmax (360 mg): 1 h
- Vd/F (360 mg): 110 L
- half-life (360 mg): 13.9 h
- concentration at 6 h [2]: 10.2 µM
- concentration at 8 h [2]: 9.51 µM
- concentration at 12 h [2]: 6.08 µM
- concentration at 0.5 h [3]: 16.8 µM
- concentration at 1 h [3]: 18.4 µM
- concentration at 1.5 h [3]: 15.9 µM
- concentration at 2 h [3]: 14.5 µM
- concentration at 2.5 h [3]: 14.6 µM
- concentration at 3 h [3]: 12.9 µM
- concentration at 4 h [3]: 12.2 µM
- concentration at 5 h [3]: 9.63 µM
- concentration at 6 h [3]: 10.2 µM
- concentration at 8 h [3]: 9.51 µM
- concentration at 10 h [3]: 7.68 µM
- concentration at 12 h [3]: 6.08 µM
- concentration at 24 h (360 mg, BI 187004 plasma concentrations, Max, 360 mg single oral, planned time 24 h): 4.74 µM
- concentration at 36 h [3]: 1.99 µM
- concentration at 48 h [3]: 1.47 µM
- concentration at 72 h [3]: 0.516 µM
- concentration at 96 h [3]: 0.174 µM
- concentration at 0.5 h [4]: 11.5 µM
- concentration at 1 h [4]: 13.1 µM
- concentration at 1.5 h [4]: 11.5 µM
- concentration at 2 h [4]: 10.9 µM
- concentration at 2.5 h [4]: 10.3 µM
- concentration at 3 h [4]: 9.36 µM
- concentration at 4 h [4]: 9.59 µM
- concentration at 5 h [4]: 7.55 µM
- concentration at 6 h [4]: 7.25 µM
- concentration at 8 h [4]: 6.85 µM
- concentration at 10 h [4]: 5.5 µM
- concentration at 12 h [4]: 4.83 µM
- concentration at 24 h (360 mg, BI 187004 plasma concentrations, Mean, 360 mg single oral, planned time 24 h): 2.84 µM
- concentration at 36 h [4]: 1.48 µM
- concentration at 48 h [4]: 0.898 µM
- concentration at 72 h [4]: 0.301 µM
- concentration at 96 h [4]: 0.095 µM
- concentration at 0.5 h [5]: 11.6 µM
- concentration at 1 h [5]: 13.3 µM
- concentration at 1.5 h [5]: 11.6 µM
- concentration at 2 h [5]: 10.8 µM
- concentration at 2.5 h [5]: 10.2 µM
- concentration at 3 h [5]: 9.34 µM
- concentration at 4 h [5]: 10.3 µM
- concentration at 5 h [5]: 7.87 µM
- concentration at 6 h [5]: 6.45 µM
- concentration at 8 h [5]: 6.27 µM
- concentration at 10 h [5]: 5.62 µM
- concentration at 12 h [5]: 4.63 µM
- concentration at 24 h (360 mg, BI 187004 plasma concentrations, Median, 360 mg single oral, planned time 24 h): 2.66 µM
- concentration at 36 h [5]: 1.49 µM
- concentration at 48 h [5]: 0.869 µM
- concentration at 72 h [5]: 0.281 µM
- concentration at 96 h [5]: 0.0816 µM
- concentration at 0.5 h [6]: 5.8 µM
- concentration at 1 h [6]: 7.17 µM
- concentration at 1.5 h [6]: 6.45 µM
- concentration at 2 h [6]: 6.66 µM
- concentration at 2.5 h [6]: 5.66 µM
- concentration at 3 h [6]: 6.3 µM
- concentration at 4 h [6]: 5.67 µM
- concentration at 5 h [6]: 4.81 µM
- concentration at 6 h [6]: 5.79 µM
- concentration at 8 h [6]: 5.06 µM
- concentration at 10 h [6]: 3.36 µM
- concentration at 12 h [6]: 3.78 µM
- concentration at 24 h (360 mg, BI 187004 plasma concentrations, Min, 360 mg single oral, planned time 24 h): 1.79 µM
- concentration at 36 h [6]: 0.83 µM
- concentration at 48 h [6]: 0.375 µM
- concentration at 72 h [6]: 0.0691 µM
- concentration at 96 h [6]: 0.0168 µM
- concentration at 0.5 h [7]: 10.8 µM
- concentration at 1 h [7]: 12.6 µM
- concentration at 1.5 h [7]: 11.1 µM
- concentration at 2 h [7]: 10.6 µM
- concentration at 2.5 h [7]: 9.71 µM
- concentration at 3 h [7]: 9.14 µM
- concentration at 4 h [7]: 9.32 µM
- concentration at 5 h [7]: 7.36 µM
- concentration at 6 h [7]: 7.11 µM
- concentration at 8 h [7]: 6.71 µM
- concentration at 10 h [7]: 5.3 µM
- concentration at 12 h [7]: 4.78 µM
- concentration at 24 h (360 mg, BI 187004 plasma concentrations, gMean, 360 mg single oral, planned time 24 h): 2.69 µM
- concentration at 36 h [7]: 1.41 µM
- concentration at 48 h [7]: 0.814 µM
- concentration at 72 h [7]: 0.246 µM
- concentration at 96 h [7]: 0.0723 µM
- concentration at 24 h (360 mg, C24 gMean (%gCV), 360 mg single oral dose): 2.69 µM
